Consider 25 compounds from US10800792B2, “Inhibitors of Bruton's tyrosine kinase and method of their use” (JANSSEN PHARMACEUTICA NV, priority 2015, dated 2020).

The experiment addresses unphosphorylated-BTK kinase domain (UP-BTK), GST-tagged human BTK (389-659aa) (Homo sapiens (Human), UniProt Q06187). In words: BTK kinase Lanthascreen binding assay. As to conditions: pIC50 = negative log of the IC50 in molar; 60 minutes incubation, 50 nM Tracer 236. The essentials:
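Compound binding to the unphosphorylated kinase domain was monitored by displacement of a fluorescently labelled tracer in a Lanthascreen format. Potency is given as pIC50, the negative log of the molar IC50.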

Chain of unphosphorylated-BTK kinase domain (UP-BTK), GST-tagged human BTK (389-659aa) (Q06187 389-659): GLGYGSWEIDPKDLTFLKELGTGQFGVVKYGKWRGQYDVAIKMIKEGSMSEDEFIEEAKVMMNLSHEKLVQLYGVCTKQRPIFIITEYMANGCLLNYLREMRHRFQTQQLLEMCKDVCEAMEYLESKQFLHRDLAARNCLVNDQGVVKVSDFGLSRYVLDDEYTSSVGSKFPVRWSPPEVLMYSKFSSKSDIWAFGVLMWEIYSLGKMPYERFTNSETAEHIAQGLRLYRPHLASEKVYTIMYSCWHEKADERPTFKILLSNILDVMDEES

On to `Cc1cc(Oc2ccccc2)ccc1N1C(=O)Nc2c(C(=O)N[C@@H]3CCN(C)C3)sc3nccc1c23` [Example 117, (R)-5-(2-Methyl-4-phenoxyphenyl)-N-(1-methylpyrrolidin-3-yl)-4-oxo-4,5-dihydro-3H-1-thia-3,5,8-triazaacenaphthylene-2-carboxamide], for which the “BTK_I_binding pIC50” value is 6.9.
The value for `Cc1cc(Oc2ccccc2)ccc1N1C(=O)Nc2c(C(=O)N[C@@H]3CCN(C(C)C)C3)sc3nccc1c23` [Example 118, (R)—N-(1-Isopropylpyrrolidin-3-yl)-5-(2-methyl-4-phenoxyphenyl)-4-oxo-4,5-dihydro-3H-1-thia-3,5,8-triazaacenaphthylene-2-carboxamide] was 6.9; that for `C=CC(=O)N1CC[C@@H](NC(=O)c2sc3nccc4c3c2NC(=O)N4c2ccc(CC)cc2C)C1` [Example 119, (R)—N-(1-Acryloylpyrrolidin-3-yl)-5-(4-ethyl-2-methylphenyl)-4-oxo-4,5-dihydro-3H-1-thia-3,5,8-triazaacenaphthylene-2-carboxamide] was 6.6.
`COC[C@H](N)C(=O)N1CCC[C@@H](NC(=O)c2sc3nccc4c3c2NC(=O)N4c2ccc(Oc3ccccc3)cc2C)C1` [Example 120, N—((R)-1-((S)-2-Amino-3-methoxypropanoyl)piperidin-3-yl)-5-(2-methyl-4-phenoxyphenyl)-4-oxo-4,5-dihydro-3H-1-thia-3,5,8-triazaacenaphthylene-2-carboxamide]: the “BTK_I_binding pIC50” value is reported as 7.1.
The value for `C=CC(=O)N1CCC[C@@H](NC(=O)c2sc3nccc4c3c2NC(=O)N4c2ccc(Oc3ccccc3)nn2)C1` [Example 121, (R)—N-(1-Acryloylpiperidin-3-yl)-4-oxo-5-(6-phenoxypyridazin-3-yl)-4,5-dihydro-3H-1-thia-3,5,8-triazaacenaphthylene-2-carboxamide] was 6.7; that for `COC[C@H](O)C(=O)N1CCC[C@@H](NC(=O)c2sc3nccc4c3c2NC(=O)N4c2ccc(Oc3ccccc3)cc2C)C1` [Example 122, N—((R)-1-((S)-2-Hydroxy-3-methoxypropanoyl)piperidin-3-yl)-5-(2-methyl-4-phenoxyphenyl)-4-oxo-4,5-dihydro-3H-1-thia-3,5,8-triazaacenaphthylene-2-carboxamide] was 7.4; that for `Cc1cc(Oc2ccccc2)ccc1N1C(=O)Nc2c(C(=O)NC3CCOCC3)sc3nccc1c23` [Example 123, 5-(2-Methyl-4-phenoxyphenyl)-4-oxo-N-(tetrahydro-2H-pyran-4-yl)-4,5-dihydro-3H-1-thia-3,5,8-triazaacenaphthylene-2-carboxamide] was 6.9.
The value for `Cc1cc(Oc2ccccc2)ccc1N1C(=O)Nc2c(C(=O)N[C@@H]3CCCN(C(=O)CO)C3)sc3nccc1c23` [Example 124, (R)—N-(1-(2-Hydroxyacetyl)piperidin-3-yl)-5-(2-methyl-4-phenoxyphenyl)-4-oxo-4,5-dihydro-3H-1-thia-3,5,8-triazaacenaphthylene-2-carboxamide] was 7.4; that for `Cc1cc(Oc2ccccc2)ccc1N1C(=O)Nc2c(C(=O)N[C@@H]3CCCN(C(=O)[C@H]4CCN(C)C4)C3)sc3nccc1c23` [Example 125, 5-(2-Methyl-4-phenoxyphenyl)-N—((R)-1-((S)-1-methylpyrrolidine-3-carbonyl)piperidin-3-yl)-4-oxo-4,5-dihydro-3H-1-thia-3,5,8-triazaacenaphthylene-2-carboxamide] was 7.2; that for `C=CC(=O)N1CC[C@@H](NC(=O)c2sc3nccc4c3c2NC(=O)N4c2ccc(OC(C)C)cc2C)C1` [Example 126, (R)—N-(1-Acryloylpyrrolidin-3-yl)-5-(4-isopropoxy-2-methylphenyl)-4-oxo-4,5-dihydro-3H-1-thia-3,5,8-triazaacenaphthylene-2-carboxamide] was 6.7.
To `Cc1c(N2C(=O)Nc3c(C(=O)N[C@@H]4CCCN(C(=O)CCO)C4)sc4nccc2c34)ccc(Oc2ccccc2)c1F` [Example 128, (R)-5-(3-Fluoro-2-methyl-4-phenoxyphenyl)-N-(1-(3-hydroxypropanoyl)piperidin-3-yl)-4-oxo-4,5-dihydro-3H-1-thia-3,5,8-triazaacenaphthylene-2-carboxamide] belongs 7.2; to `Cc1cc(Oc2ccccc2)ccc1N1C(=O)Nc2c(C(=O)NC3COCCN(C)C3)sc3nccc1c23` (stereo not shown) [Example 129, N-(4-Methyl-1,4-oxazepan-6-yl)-5-(2-methyl-4-phenoxyphenyl)-4-oxo-4,5-dihydro-3H-1-thia-3,5,8-triazaacenaphthylene-2-carboxamide], 6.9.
On to `Cc1cc(Oc2ccccc2)ccc1N1C(=O)Nc2c(C(=O)N[C@@H]3CCCN(C(=O)CCN(C)C)C3)sc3nccc1c23` [Example 130, (R)—N-(1-(3-(Dimethylamino)propanoyl)piperidin-3-yl)-5-(2-methyl-4-phenoxyphenyl)-4-oxo-4,5-dihydro-3H-1-thia-3,5,8-triazaacenaphthylene-2-carboxamide], for which the “BTK_I_binding pIC50” value came out at 7.1.
Consider `Cc1cc(Oc2ccccc2)ccc1N1C(=O)Nc2c(C(=O)N[C@@H]3CCCN(C(=O)[C@H]4CCNC4)C3)sc3nccc1c23` [Example 131, 5-(2-Methyl-4-phenoxyphenyl)-4-oxo-N—((R)-1-((S)-pyrrolidine-3-carbonyl)piperidin-3-yl)-4,5-dihydro-3H-1-thia-3,5,8-triazaacenaphthylene-2-carboxamide], for which the “BTK_I_binding pIC50” value is listed as 7.5.
To `Cc1cc(Oc2ccccc2)ccc1N1C(=O)Nc2c(C(=O)N[C@H]3CN(C)C[C@H]3F)sc3nccc1c23` [Example 132, N-((3S,4R)-4-Fluoro-1-methylpyrrolidin-3-yl)-5-(2-methyl-4-phenoxyphenyl)-4-oxo-4,5-dihydro-3H-1-thia-3,5,8-triazaacenaphthylene-2-carboxamide] belongs 7.2; to `CN1CCC[C@@H](NC(=O)c2sc3nccc4c3c2NC(=O)N4c2ccc(Oc3ccccc3)cc2Cl)C1` [Example 133, (R)-5-(2-Chloro-4-phenoxyphenyl)-N-(1-methylpiperidin-3-yl)-4-oxo-4,5-dihydro-3H-1-thia-3,5,8-triazaacenaphthylene-2-carboxamide], 7.0.
The value for `Cc1cc(Oc2ccccc2)ccc1N1C(=O)Nc2c(C(=O)N[C@@H]3CCCN(C(=O)/C(C#N)=C\C(C)(C)N(C)C)C3)sc3nccc1c23` [Example 134, (R,Z)—N-(1-(2-Cyano-4-(dimethylamino)-4-methylpent-2-enoyl)piperidin-3-yl)-5-(2-methyl-4-phenoxyphenyl)-4-oxo-4,5-dihydro-3H-1-thia-3,5,8-triazaacenaphthylene-2-carboxamide] was 7.1; that for `CN1CCC[C@@H](NC(=O)c2sc3nccc4c3c2NC(=O)N4c2ccc(Oc3ccccc3)cc2F)C1` [Example 135, (R)-5-(2-Fluoro-4-phenoxyphenyl)-N-(1-methylpiperidin-3-yl)-4-oxo-4,5-dihydro-3H-1-thia-3,5,8-triazaacenaphthylene-2-carboxamide] was 7.2; that for `Cc1cc(Oc2ccccc2)ccc1N1C(=O)Nc2c(C(=O)N[C@@H]3CCCN(C(=O)C4COC4)C3)sc3nccc1c23` [Example 136, (R)-5-(2-Methyl-4-phenoxyphenyl)-N-(1-(oxetane-3-carbonyl)piperidin-3-yl)-4-oxo-4,5-dihydro-3H-1-thia-3,5,8-triazaacenaphthylene-2-carboxamide] was 7.1.
The value for `C=CC(=O)N1CC[C@@H](N(C)C(=O)c2sc3nccc4c3c2NC(=O)N4c2ccc(Oc3ccccc3)cc2C)C1` [Example 137, (R)—N-(1-Acryloylpyrrolidin-3-yl)-N-methyl-5-(2-methyl-4-phenoxyphenyl)-4-oxo-4,5-dihydro-3H-1-thia-3,5,8-triazaacenaphthylene-2-carboxamide] was 6.6; that for `Cc1cc(Oc2ccccc2)ccc1N1C(=O)Nc2c(C(=O)N[C@H]3CNC[C@H](F)C3)sc3nccc1c23` [Example 138, N-((3R,5R)-5-fluoropiperidin-3-yl)-5-(2-methyl-4-phenoxyphenyl)-4-oxo-4,5-dihydro-3H-1-thia-3,5,8-triazaacenaphthylene-2-carboxamide] was 7.0.
Turning to `COCCC(=O)N1C[C@H](NC(=O)c2sc3nccc4c3c2NC(=O)N4c2ccc(Oc3ccccc3)cc2C)[C@@H](O)C1` [Example 139, N-((3S,4S)-4-Hydroxy-1-(3-methoxypropanoyl)pyrrolidin-3-yl)-5-(2-methyl-4-phenoxyphenyl)-4-oxo-4,5-dihydro-3H-1-thia-3,5,8-triazaacenaphthylene-2-carboxamide], the “BTK_I_binding pIC50” value was 7.2.
To `CC(C)=C(C#N)C(=O)N1CCC[C@@H](NC(=O)c2sc3nccc4c3c2NC(=O)N4c2ccc(Oc3ccccc3)cc2C)C1` [Example 140, (R)—N-(1-(2-Cyano-3-methylbut-2-enoyl)piperidin-3-yl)-5-(2-methyl-4-phenoxyphenyl)-4-oxo-4,5-dihydro-3H-1-thia-3,5,8-triazaacenaphthylene-2-carboxamide] belongs 6.7; to `CCN1CC[C@@H](NC(=O)c2sc3nccc4c3c2NC(=O)N4c2ccc(Oc3ccccc3)cc2C)C1` [Example 141, (R)—N-(1-Ethylpyrrolidin-3-yl)-5-(2-methyl-4-phenoxyphenyl)-4-oxo-4,5-dihydro-3H-1-thia-3,5,8-triazaacenaphthylene-2-carboxamide], 6.8; to `COC[C@H](OC)C(=O)N1CCC[C@@H](NC(=O)c2sc3nccc4c3c2NC(=O)N4c2ccc(Oc3ccccc3)cc2C)C1` [Example 142, N—((R)-1-((S)-2,3-Dimethoxypropanoyl)piperidin-3-yl)-5-(2-methyl-4-phenoxyphenyl)-4-oxo-4,5-dihydro-3H-1-thia-3,5,8-triazaacenaphthylene-2-carboxamide], 7.2.
